# Where two headings read alike, the source gives them in different places.
# Columns and labels:
# [1] = target: T1, longitudinal muscle from the intact ileum of guinea-pigs (histamine) (Cavia porcellus, UniProt P31389); assay: In vitro antihistamine activity: shift of histamine concentration-response curves (Schild plot), isolated guinea-pig ileum longitudinal muscle; format: cell-based; conditions: vs histamine, one hour incubation with test compound, 60 min
# T1 construct: The longitudinal muscle was isolated from the intact ileum of guinea-pigs; from tissue; host or cells: longitudinal muscle of guinea-pig ileum (Hartley, male)
# Experimental: A. In vitro antihistamine activity: The longitudinal muscle was isolated from the intact ileum of guinea-pigs (Hartley, male 250-400 g) and placed in an organ bath under 300 mg tension. After one hour of equilibration, cumulative concentration-response curves (Van Rossum, J. M., Arch. Int. Pharmacodyn. Ther. 143, 299-330, 1963) to histamine were obtained. Following washing, the tissues were incubated for one hour with the test compound and then a second histamine concentration-response curve was run. Shifts to the right of the agonist concentration-response curve produced by the antagonists were used to construct Schild plots (Arunlakshana, O. and Schild, H. O., Br. J. Pharmacol. 14, 48-58, 1959). Regression of Log (dr-l) on Log [B], where dr is an equiactive response in the presence and absence of antagonist and [B] is the molar concentration of antagonist, allowed an estimate of pA2, i.e. the negative log of the concentration of antagonist which shifts the control histamine concentration response curve 2X to the right.
# [2] = background statement on promethazine; cited from earlier work
# [3] = cited from earlier work
# T1 sequence (P31389 whole entry): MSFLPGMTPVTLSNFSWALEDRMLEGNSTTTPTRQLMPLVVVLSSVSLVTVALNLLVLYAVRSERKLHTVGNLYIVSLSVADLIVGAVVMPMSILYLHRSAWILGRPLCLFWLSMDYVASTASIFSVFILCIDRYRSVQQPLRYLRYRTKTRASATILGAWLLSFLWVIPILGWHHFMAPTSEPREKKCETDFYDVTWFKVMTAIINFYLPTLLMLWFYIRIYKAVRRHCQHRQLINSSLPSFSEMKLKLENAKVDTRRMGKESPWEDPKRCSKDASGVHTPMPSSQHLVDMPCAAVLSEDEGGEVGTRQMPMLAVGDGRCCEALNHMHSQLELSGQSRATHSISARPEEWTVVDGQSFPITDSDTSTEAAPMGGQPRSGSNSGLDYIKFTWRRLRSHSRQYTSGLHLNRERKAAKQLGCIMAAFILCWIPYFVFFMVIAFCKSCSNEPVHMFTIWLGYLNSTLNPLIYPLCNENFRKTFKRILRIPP
structure (smiles),measurement,setting,value
"CN(C)CCCN1c2ccccc2Sc2ccc(S(=O)(=O)O)cc21 [Example 2, 10-(3'-N,N-Dimethylaminopropyl)phenothiazine-2-sulphonic acid hemihydrate]",pA2,[1],7.8
"CC(CN1c2ccccc2Sc2ccccc21)N(C)C (centres unmarked) [promethazine, 10-(2-dimethylaminopropyl)phenothiazine]",anticholinergic activity,[2],potent anticholinergic activity
same,sedation or drowsiness,"[3]; in some patients, antihistamines now in use",cause sedation or drowsiness in some patients
COc1ccc(CN(CCN(C)C)c2ccccn2)cc1 [pyrilamine],sedation or drowsiness,[3]; in vivo,cause sedation or drowsiness in some patients
Cc1ccc(/C(=C\CN2CCCC2)c2ccccn2)cc1 [triprolidine],sedation or drowsiness,[3]; in vivo,cause sedation or drowsiness in some patients

# Source: US4705854A, “Phenothiazine compounds” (priority 1984, dated 1987)
